From ChEMBL document CHEMBL1201862, “PubChem BioAssay data set” (2004)
Calls of active or inactive are those of the source.

Assays:
[1] = molecular target: T1, Histone-lysine N-methyltransferase NSD2 (Homo sapiens, UniProt O96028); format: biochemical
T1 sequence (O96028 whole entry): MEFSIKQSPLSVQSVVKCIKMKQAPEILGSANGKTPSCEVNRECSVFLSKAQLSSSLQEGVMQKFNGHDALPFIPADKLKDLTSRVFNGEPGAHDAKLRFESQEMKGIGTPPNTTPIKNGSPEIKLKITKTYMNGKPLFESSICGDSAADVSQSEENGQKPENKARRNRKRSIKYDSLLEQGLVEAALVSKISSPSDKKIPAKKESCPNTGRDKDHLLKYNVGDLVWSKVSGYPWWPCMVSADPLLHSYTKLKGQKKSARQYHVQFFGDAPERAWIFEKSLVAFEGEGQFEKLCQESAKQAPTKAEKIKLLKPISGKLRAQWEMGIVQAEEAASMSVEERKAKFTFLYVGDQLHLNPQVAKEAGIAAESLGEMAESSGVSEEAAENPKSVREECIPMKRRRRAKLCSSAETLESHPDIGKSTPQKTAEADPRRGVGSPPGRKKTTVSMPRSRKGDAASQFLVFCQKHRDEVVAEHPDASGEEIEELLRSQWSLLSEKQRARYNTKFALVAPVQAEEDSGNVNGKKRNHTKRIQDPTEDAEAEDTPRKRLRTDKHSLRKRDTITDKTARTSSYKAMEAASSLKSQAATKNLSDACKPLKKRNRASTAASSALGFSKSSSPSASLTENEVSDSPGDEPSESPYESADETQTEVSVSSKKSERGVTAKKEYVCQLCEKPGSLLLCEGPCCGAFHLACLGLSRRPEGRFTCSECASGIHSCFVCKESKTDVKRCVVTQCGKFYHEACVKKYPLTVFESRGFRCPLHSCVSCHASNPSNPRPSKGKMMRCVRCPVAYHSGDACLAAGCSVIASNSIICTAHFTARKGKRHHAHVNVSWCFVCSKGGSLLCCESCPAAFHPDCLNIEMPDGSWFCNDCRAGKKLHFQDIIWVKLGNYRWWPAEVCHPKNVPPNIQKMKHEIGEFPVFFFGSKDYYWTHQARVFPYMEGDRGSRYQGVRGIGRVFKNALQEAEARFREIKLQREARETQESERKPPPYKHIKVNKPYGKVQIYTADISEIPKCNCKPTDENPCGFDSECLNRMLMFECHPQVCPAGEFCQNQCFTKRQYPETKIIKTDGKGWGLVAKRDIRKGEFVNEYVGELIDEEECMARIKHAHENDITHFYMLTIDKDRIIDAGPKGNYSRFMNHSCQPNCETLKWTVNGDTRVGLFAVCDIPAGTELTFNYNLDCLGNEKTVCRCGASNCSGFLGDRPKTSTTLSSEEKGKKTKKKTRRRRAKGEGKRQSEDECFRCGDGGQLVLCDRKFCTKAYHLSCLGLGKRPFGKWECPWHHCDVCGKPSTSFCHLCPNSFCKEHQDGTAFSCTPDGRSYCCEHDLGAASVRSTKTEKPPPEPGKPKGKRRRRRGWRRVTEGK

[2] = molecular target: SUMO-activating enzyme (Homo sapiens, UniProt Q9UBT2); assay: inhibitors of in vitro SUMOylation cascade, primary screen, biochemical, HTRF, uHTS (AID 2006); format: protein-complex assay
Chain of SUMO-activating enzyme (Q9UBE0 whole entry): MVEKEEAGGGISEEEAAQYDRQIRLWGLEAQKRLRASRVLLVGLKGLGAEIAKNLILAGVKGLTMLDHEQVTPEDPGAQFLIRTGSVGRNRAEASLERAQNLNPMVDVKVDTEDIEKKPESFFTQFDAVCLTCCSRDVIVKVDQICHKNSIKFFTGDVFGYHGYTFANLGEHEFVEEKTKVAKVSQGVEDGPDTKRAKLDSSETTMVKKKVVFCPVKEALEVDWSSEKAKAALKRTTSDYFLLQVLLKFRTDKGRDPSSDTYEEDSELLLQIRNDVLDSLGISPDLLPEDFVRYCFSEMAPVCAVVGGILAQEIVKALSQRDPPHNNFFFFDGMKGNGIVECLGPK
Chain of SUMO-activating enzyme (Q9UBT2 whole entry): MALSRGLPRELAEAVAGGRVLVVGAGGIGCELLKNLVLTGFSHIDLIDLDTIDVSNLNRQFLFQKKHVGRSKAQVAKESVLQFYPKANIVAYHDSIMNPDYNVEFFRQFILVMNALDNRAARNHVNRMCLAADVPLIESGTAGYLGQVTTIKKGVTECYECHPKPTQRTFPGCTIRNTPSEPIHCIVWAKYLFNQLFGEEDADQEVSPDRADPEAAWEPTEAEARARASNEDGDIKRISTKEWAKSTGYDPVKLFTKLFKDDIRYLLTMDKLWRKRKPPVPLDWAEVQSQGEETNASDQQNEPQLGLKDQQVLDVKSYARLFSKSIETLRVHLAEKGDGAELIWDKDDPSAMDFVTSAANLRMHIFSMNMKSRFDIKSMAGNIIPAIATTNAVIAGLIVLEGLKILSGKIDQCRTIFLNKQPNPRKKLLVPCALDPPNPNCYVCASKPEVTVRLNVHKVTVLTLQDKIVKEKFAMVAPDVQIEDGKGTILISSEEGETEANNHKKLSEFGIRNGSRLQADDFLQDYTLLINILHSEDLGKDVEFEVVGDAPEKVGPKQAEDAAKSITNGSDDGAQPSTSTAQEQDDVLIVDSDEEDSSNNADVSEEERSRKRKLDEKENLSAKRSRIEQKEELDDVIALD

[3] = molecular target: cAMP-dependent protein kinase catalytic subunit PRKX (Homo sapiens, UniProt P51817); format: functional
Chain of cAMP-dependent protein kinase catalytic subunit PRKX (P51817 whole entry): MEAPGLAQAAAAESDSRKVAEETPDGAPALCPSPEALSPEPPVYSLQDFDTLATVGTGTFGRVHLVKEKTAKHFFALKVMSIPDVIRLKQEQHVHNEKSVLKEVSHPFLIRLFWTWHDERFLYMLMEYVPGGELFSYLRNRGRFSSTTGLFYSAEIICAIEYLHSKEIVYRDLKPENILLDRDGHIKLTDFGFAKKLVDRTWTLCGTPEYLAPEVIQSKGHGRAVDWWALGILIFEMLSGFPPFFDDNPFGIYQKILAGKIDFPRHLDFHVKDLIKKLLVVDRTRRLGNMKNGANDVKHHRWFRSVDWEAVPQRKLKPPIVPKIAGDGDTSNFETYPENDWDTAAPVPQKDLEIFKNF

[4] = molecular target: Tyrosine-protein kinase BTK (Homo sapiens, UniProt Q06187); format: functional
[5] = molecular target: Tyrosine-protein kinase Lck (Homo sapiens, UniProt P06239); format: functional;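 also: lck was assayed as one member of a kinase panel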
Chain of Tyrosine-protein kinase Lck (P06239 whole entry): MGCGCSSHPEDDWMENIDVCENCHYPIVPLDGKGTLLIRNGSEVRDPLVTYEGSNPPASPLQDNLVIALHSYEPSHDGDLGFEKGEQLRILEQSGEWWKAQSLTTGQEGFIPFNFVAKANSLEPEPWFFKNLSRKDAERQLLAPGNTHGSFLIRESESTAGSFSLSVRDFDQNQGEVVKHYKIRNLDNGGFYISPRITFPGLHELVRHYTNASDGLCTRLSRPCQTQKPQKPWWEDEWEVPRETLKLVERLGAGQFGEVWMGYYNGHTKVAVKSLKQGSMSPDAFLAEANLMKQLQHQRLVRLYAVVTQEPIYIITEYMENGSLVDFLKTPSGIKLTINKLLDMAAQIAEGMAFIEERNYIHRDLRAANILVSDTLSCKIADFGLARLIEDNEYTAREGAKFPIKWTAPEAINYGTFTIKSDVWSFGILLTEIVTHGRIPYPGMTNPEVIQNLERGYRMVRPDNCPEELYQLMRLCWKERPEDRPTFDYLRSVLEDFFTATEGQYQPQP

[6] = molecular target: Mitogen-activated protein kinase 9 (Homo sapiens, UniProt P45984); format: functional;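 also: value from a kinome panel profiling assay, MAPK9 panel entry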
Chain of Mitogen-activated protein kinase 9 (P45984 whole entry): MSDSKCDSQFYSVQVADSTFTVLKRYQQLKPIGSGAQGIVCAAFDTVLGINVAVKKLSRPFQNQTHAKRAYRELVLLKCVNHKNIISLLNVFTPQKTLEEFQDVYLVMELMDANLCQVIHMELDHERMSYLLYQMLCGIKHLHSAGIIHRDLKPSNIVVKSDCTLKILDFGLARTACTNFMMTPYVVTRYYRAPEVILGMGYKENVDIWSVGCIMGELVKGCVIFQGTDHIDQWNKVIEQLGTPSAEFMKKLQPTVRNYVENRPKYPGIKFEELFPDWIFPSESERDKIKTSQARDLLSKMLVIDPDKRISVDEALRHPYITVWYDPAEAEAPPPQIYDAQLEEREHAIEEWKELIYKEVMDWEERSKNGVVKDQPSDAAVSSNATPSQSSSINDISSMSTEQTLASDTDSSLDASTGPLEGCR

[7] = molecular target: Insulin-like growth factor 1 receptor (Homo sapiens, UniProt P08069); assay: Navigating the Kinome. Panel member name: IGF1R; format: functional
[8] = molecular target: Calcium/calmodulin-dependent protein kinase type II subunit alpha (Homo sapiens, UniProt Q9UQM7); assay: Navigating the Kinome. Panel member name: CAMK2A; format: functional
Chain of Calcium/calmodulin-dependent protein kinase type II subunit alpha (Q9UQM7 whole entry): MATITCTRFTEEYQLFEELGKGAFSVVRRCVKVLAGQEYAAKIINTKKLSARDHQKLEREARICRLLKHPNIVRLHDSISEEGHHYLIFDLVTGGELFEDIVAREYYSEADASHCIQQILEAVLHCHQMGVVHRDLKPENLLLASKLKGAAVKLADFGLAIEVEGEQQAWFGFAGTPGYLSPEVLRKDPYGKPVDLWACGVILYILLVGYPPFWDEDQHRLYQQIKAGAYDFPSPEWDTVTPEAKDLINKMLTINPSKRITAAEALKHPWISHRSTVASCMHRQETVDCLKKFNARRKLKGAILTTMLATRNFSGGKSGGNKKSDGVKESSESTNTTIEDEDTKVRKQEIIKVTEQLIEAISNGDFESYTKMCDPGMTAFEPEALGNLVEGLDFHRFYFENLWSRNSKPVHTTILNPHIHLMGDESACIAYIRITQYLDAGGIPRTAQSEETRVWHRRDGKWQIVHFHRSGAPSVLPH

[9] = molecular target: Activin receptor type-1 (Homo sapiens, UniProt Q04771); assay: Navigating the Kinome. Panel member name: ACVR1; format: functional
Chain of Activin receptor type-1 (Q04771 whole entry): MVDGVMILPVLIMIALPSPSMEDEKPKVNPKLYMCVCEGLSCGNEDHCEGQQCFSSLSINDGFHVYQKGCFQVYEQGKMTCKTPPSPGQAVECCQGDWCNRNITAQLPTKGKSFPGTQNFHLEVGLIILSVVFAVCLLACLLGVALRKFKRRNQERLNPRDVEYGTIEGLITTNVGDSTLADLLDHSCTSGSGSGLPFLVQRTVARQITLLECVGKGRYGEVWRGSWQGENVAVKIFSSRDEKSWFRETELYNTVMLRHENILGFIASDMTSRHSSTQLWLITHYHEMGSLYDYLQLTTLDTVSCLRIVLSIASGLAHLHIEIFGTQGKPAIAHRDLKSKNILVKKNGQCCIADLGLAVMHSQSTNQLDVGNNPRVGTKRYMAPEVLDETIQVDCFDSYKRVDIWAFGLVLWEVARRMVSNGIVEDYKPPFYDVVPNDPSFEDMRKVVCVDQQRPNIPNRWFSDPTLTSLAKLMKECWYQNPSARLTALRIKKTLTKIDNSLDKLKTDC

[10] = molecular target: T2, Serine/threonine-protein kinase TAO1 (Homo sapiens, UniProt Q7L7X3); format: functional
T2 sequence (Q7L7X3 whole entry): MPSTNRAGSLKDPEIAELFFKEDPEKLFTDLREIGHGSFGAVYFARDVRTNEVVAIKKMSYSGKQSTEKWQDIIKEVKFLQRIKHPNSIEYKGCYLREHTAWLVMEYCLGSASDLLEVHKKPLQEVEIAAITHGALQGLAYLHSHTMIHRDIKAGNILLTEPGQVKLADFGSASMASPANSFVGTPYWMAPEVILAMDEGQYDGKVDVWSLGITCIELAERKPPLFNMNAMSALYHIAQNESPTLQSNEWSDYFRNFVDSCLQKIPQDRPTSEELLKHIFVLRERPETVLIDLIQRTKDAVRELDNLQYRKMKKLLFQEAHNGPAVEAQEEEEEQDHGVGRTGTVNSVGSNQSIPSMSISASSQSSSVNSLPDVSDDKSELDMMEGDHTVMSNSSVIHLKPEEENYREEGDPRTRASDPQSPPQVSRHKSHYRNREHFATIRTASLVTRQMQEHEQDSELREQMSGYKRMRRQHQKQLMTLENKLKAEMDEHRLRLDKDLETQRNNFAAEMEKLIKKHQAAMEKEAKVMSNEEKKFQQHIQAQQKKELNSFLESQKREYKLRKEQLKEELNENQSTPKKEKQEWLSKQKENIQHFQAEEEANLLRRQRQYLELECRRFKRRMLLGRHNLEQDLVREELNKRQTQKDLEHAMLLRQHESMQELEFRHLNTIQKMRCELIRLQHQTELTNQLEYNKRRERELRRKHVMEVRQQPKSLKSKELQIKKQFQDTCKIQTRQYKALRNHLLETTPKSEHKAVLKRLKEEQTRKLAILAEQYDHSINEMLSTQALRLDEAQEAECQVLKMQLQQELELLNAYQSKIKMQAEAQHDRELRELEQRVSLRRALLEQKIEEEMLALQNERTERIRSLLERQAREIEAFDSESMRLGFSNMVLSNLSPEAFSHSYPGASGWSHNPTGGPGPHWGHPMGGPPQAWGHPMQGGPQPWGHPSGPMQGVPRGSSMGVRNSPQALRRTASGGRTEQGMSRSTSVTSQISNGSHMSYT

[11] = molecular target: Tyrosine-protein kinase JAK3 (Homo sapiens, UniProt P52333); format: functional
Chain of Tyrosine-protein kinase JAK3 (P52333 whole entry): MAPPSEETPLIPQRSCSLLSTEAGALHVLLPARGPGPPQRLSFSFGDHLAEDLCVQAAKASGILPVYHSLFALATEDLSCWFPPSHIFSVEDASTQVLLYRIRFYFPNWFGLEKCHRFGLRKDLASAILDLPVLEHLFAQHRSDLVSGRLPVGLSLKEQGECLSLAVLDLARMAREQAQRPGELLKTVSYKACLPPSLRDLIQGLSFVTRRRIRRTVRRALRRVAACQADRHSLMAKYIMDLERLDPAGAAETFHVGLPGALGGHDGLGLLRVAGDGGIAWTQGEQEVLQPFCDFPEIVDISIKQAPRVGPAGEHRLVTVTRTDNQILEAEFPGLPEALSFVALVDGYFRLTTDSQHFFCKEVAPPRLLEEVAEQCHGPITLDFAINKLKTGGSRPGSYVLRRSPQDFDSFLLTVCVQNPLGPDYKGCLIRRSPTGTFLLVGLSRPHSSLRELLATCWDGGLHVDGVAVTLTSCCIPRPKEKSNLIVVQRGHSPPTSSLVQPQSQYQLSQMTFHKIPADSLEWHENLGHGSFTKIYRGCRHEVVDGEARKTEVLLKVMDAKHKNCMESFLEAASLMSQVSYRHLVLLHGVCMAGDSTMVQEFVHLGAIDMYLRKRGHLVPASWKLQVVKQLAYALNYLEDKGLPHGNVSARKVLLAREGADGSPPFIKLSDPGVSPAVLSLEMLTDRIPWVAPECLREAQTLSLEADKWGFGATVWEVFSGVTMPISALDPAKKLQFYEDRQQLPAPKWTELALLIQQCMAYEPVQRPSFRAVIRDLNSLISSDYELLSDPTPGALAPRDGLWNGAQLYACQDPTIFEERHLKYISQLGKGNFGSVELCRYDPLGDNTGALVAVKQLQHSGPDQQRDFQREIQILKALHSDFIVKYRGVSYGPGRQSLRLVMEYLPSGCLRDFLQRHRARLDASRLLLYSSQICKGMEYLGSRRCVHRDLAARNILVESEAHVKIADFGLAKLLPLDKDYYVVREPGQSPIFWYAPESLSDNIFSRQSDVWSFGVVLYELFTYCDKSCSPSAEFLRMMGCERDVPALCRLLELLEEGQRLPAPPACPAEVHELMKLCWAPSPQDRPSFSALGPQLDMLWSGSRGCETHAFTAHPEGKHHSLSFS

**Q.** How did the AC50 [1] turn out when `CCN(CC)CCOc1ccc2c(c1)C(=NNC(=O)c1ccccn1)c1cc(OCCN(CC)CC)ccc1-2` was run?
**A.** 10300 nM (active)

**Q.** Which IC50 [2] does the source give for `Oc1nc(Nc2ccc(F)cc2)cc2ccccc12` here?
**A.** 3380 nM (active)

**Q.** Which AC50 [1] does the source give for `CN(C)c1cc(N/N=C\c2ccccc2)nc(N(C)C)n1` here?
**A.** 4930 nM (active)

**Q.** And the IC50 [2]?
**A.** 15500 nM (active)

**Q.** How did the Ki [3] turn out when `O=C1Nc2cc(-c3ccc(O)cc3)ccc2C1=Cc1ccc[nH]1` was run?
**A.** 2000 nM (active)

**Q.** And the Ki [4]?
**A.** > 6310 nM (inactive)

**Q.** What about the Ki [5] of the same compound?
**A.** 1000 nM (active)

**Q.** What about the Ki [6] of the same compound?
**A.** > 3980 nM (inactive)

**Q.** And the Ki [7]?
**A.** > 2510 nM (inactive)

**Q.** What about the Ki [8] of the same compound?
**A.** 2510 nM (active)

**Q.** What about the Ki [9] of the same compound?
**A.** 3160 nM (active)

**Q.** And the Ki [10]?
**A.** 398 nM (active)

**Q.** What about the Ki [11] of the same compound?
**A.** 20 nM (active)

**Q.** What does the source list for `NC(COc1cncc(-c2ccc3c(c2)C(=Cc2ccc[nH]2)C(=O)N3)c1)Cc1ccccc1` (configuration not stated)?
**A.** Ki [3]: 39.8 nM (active); Ki [4]: 3980 nM (active); Ki [5]: 251 nM (active); Ki [6]: 1260 nM (active); Ki [7]: 1000 nM (active); Ki [8]: 63.1 nM (active); Ki [9]: 794 nM (active); Ki [10]: 251 nM (active); Ki [11]: 20 nM (active)
